Assay results taken from patent publication US10125097B2, “1- [1-(benzoyl)-pyrrolidine-2-carbonyl]-pyrrolidine-2-carbonitrile derivatives” (UNIVERSITAT DE BARCELONA, priority 2012, dated 2018).

Experiments:
[1] = Parallel artificial membrane permeability assay (PAMPA); assay type: in vitro ADME; details: 200 μM initial concentration, pH 7.4, 4 hours, room temperature
Protocol: Parallel artificial membrane permeability assay (PAMPA) described in Kansy M et al., J. Med. Chem. 1998; 41(7):1007-10 was used to determine the capacity of compounds to cross the Blood-Brain Barrier (BBB) by passive diffusion (Di L et al., Eur. J. Med. Chem. 2003; 38(3):223-32). The effective permeability (Pe) of the compounds was measured at an initial concentration of 200 μM. The buffer solution was prepared from a commercial concentrated one following the manufacturer's instructions. pH was adjusted to 7.4 using a 0.5 M NaOH solution. A stock solution of new compound was prepared in DMSO and diluted with buffer solution to a final 200 μM concentration (0.5% DMSO content). The PAMPA sandwich was separated and each donor well was filled with 200 μL of the compound solution. The acceptor plate was placed into the donor plate, ensuring that the underside of the membrane was in contact with buffer. 4 μL of the mixture of phospholipids (20 mg/mL) in dodecane was added to the filter of each well, and 200 μL of buffer solution was added to the each acceptor well. The plate was covered and incubated at room temperature in a saturated humidity atmosphere for 4 hours under orbital agitation at 100 rpm. After 4 hours, the contents of the acceptor and donor compartments were analyzed by HPLC: 150 μL of each well from the donor plate and 150 μL of each well from the acceptor plate were transferred to HPLC vials, injecting each sample into a reverse-phase C18 column (150 mm×4.6 mm×5 μm, 100 Å) (100 μL/injection from the acceptor wells, 10 μL/injection from the donor wells and for t0 references). Transport was also confirmed by MALDI-TOF spectrometry.
The phospholipid mixture used was a porcine polar brain lipid extract, provided by Avanti polar lipids, with the following composition: 12.6% phosphatidylcholine (PC), 33.1% phosphatidylethanolamine (PE), 18.5% phosphatidylserine (PS), 4.1% phosphatidylinositol (PI), 0.8% phosphatidic acid and 30.9% of other compounds.
The effective permeability (Pe) after 4 hours was calculated using equation 2 and the percentage of transport was calculated using equation 3:
[formula] wherein: t is time (h) CA(t) is the compound concentration in the acceptor well at time t and CD(to) is the compound concentration in the donor well at to.

MK-801-treated rodents = assay: Passive avoidance task in MK-801 cognition impairment model; assay type: in vivo, rodents (mice or rats); details: 5 mg/Kg s.c. 35 min before shock session; MK-801 0.2 mg/kg i.p.; FIG. 2
Protocol: The new compounds were evaluated for their efficacy as cognition enhancers in a pharmacological model for cognitive impairment. The effects of the new compounds were evaluated in untreated and MK-801-treated rodents (mice or rats). MK-801 is a non-competitive antagonist of the N-Methyl-D-aspartate (NMDA) receptor which impairs animal performance in various learning and memory paradigms (Castellano C et al., Curr. Drug Targets 2001; 2:273-83; Riedel G et al., Behav. Brain Res. 2003; 140:1-47). MK-801 also produces various effects on rodent behavior, including deficits in sensory processing, hypermotility, stereotypy and ataxia. […]
For the evaluation of the passive avoidance task, a two-compartment box with a light compartment and a dark compartment of the same dimensions was used. […] In the evaluation session, the time which the animal takes to enter the dark compartment (in seconds) was measured, as a sign of memory retention of the shock received in the dark compartment during the previous session. […] The corresponding evaluated compound was injected s.c. 35 min before the shock session, followed 15 minutes later by i.p. injection of MK-801, or PBS in the case of the control, in the same doses and volume as described for the object recognition test.

% T (percentage of transport) [1]: 29.92%
Papp at 4 h, 200 μM ([1]; PAMPA, read-out: Effective permeability Pe): 22.1 ×10⁻⁶ cm/s
Compound: COc1cc(C(=O)N2CC(F)(F)C[C@H]2C(=O)N2CCC[C@H]2C#N)cc(OC)c1OCc1ccccc1 [Example 4, (S)-1-((2S)-1-(4-(benzyloxy)-3,5-dimethoxybenzoyl)-4,4-difluoropyrrolidine-2-carbonyl)pyrrolidine-2-carbonitrile]
Reversal of MK-801-induced memory impairment in the passive avoidance test (latency to enter dark compartment) (MK-801-treated rodents): able to reverse MK-801-induced memory impairment
